Source: patent US7442796B2, “Compounds for the treatment of metabolic disorders” (Wellstat Therapeutics Corporation, priority 2003, dated 2008)

Tested on: db/db mice
Test: Antidiabetic effects in db/db mice (serum glucose and triglycerides after daily oral dosing)
Assay type: in vivo
Details: male db/db mice, 17 days
Excerpt: C57BL/Ksola (db/db) mice have a defect in leptin signaling, leading to hyperphagia, obesity and diabetes. Moreover, unlike ob/ob mice on a C57BL/6J background, db/db mice on a C57BLKS background undergo failure of their insulin-producing pancreatic islet cells, resulting in progression from hyperinsulinemia (associated with peripheral insulin resistance) to hypoinsulinemic diabetes.
Male obese (db/db homozygote) C57BL/Ksola mice approximately 8 weeks of age, were obtained from Jackson Labs (Bar Harbor, Me.) and sorted into groups of 7 animals each animals such that the body weights (40-45 g) and serum glucose levels (≧300 mg/dl in fed state) were similar between groups. A minimum of 7 days was allowed for adaptation after arrival. All animals were maintained under controlled temperature (23° C.), relative humidity (50±5%) and light (7:00-19:00), and allowed free access to standard chow (Formulab Diet 5008, Quality Lab Products, Elkridge, Md.) and water.
Treatment cohorts were given daily oral doses of vehicle (1% hydroxypropylmethylcellulose), Compounds BI, CF, CG, CQ or phenylacetate for 17 days. At the end of the treatment period, blood samples were collected and serum glucose and triglycerides were measured.

Row | SMILES | Glucose mg/dL (±SEM) (60 mg/kg daily oral) | Triglycerides (60 mg/kg daily oral) | Glucose mg/dL (±SEM) (100 mg/kg daily oral) | Triglycerides (100 mg/kg daily oral) | Glucose mg/dL (±SEM) (300 mg/kg daily oral) | Triglycerides (300 mg/kg daily oral)
1 | Cc1cccc(C)c1COc1cccc(C(=O)C(=O)O)c1 [CQ, [3-(2,6-Dimethylbenzyloxy)-phenyl]-oxoacetic acid] | 691 ± 37 mg/dL | 175 ± 25 mg/dL | 786 ± 65 mg/dL | 125 ± 10 mg/dL | – | –
2 | O=C(O)Cc1ccccc1 [Phenylacetate, reference compound] | – | – | – | – | 661 ± 64 mg/dL | 171 ± 33 mg/dL
